Test results from ChEMBL document CHEMBL4665825, “Paliasanines A-E, 3,4-Methylenedioxyquinoline Alkaloids Fused with a Phenyl-14-oxabicyclo[3.2.1]octane Unit from Melochia umbellata var. deglabrata” (J Nat Prod, 2020).
The source made the active and inactive calls. The calls are words filed in the database; no cut-off is given here.

Assays:
MDA-MB-231 [1] = experiment: Antiproliferative activity against human MDA-MB-231 cells assessed as reduction in cell viability after 72 hrs by SRB assay; assay type: functional, cell-based; conditions: MDA-MB-231, 72 h
MCF7 = experiment: Antiproliferative activity against human MCF7 cells assessed as reduction in cell viability after 72 hrs by SRB assay; assay type: functional, cell-based; conditions: MCF7, 72 h
[2] = Antiproliferative activity against human KB-VIN cells assessed as reduction in cell viability after 72 hrs by SRB assay; assay type: functional, cell-based; conditions: KBVIN
A549 = experiment: Antiproliferative activity against human A549 cells assessed as reduction in cell viability after 72 hrs by SRB assay; assay type: functional, cell-based; conditions: A549, 72 h
KB = experiment: Antiproliferative activity against human KB cells assessed as reduction in cell viability after 72 hrs by SRB assay; assay type: functional, cell-based
[3] = Selectivity ratio of IC50 for antiproliferative activity against human KB cells to IC50 for antiproliferative activity against KB-VIN cells; assay type: functional
MDA-MB-231 [4] = experiment: Induction of cell cycle arrest in human MDA-MB-231 cells assessed as accumulation at S phase at 21 uM measured after 24 hrs by propidium iodide staining based flow cytometry analysis; assay type: functional
[5] = test system: Human immunodeficiency virus 1; experiment: Antiviral activity against HIV-1 NL4-3 infected in human MT4 cells measured on day 3 by Nano-Glo luciferase assay; assay type: functional, organism-based; conditions: time 3.0 day

Row | Structure (SMILES) | IC50 (MDA-MB-231 [1]) | IC50 (MCF7) | IC50 [2] | IC50 (A549) | IC50 (KB) | Ratio IC50 [3] | Activity (MDA-MB-231 [4]) | Activity [5]
1 | COc1ccccc1[C@@]1(O)c2ccc3[nH]c(C)c(OC)c(=O)c3c2[C@@H]2CC[C@H]1O2 | > 10 µM | 8 µM | > 10 µM | 6.6 µM | > 10 µM |  |  | 
2 | CC(=O)/C=C/[C@]1(O)C(C)(C)C[C@H](O)C[C@@]1(C)O | > 10 µM | > 10 µM | > 10 µM | > 10 µM | > 10 µM |  |  | 
3 | CCCCCCCC[C@H]1CCC(=O)c2[nH]c(C)c(OC)c(=O)c21 | 6.7 µM | 6.4 µM | 8.6 µM | 8.4 µM | 17.7 µM | 2 | Active | 
4 | COc1ccc(OC)c([C@@]2(O)c3ccc4nc(C)c5c(c4c3[C@@H]3CC[C@H]2O3)OCO5)c1 | > 10 µM | > 10 µM | > 10 µM | > 10 µM | > 10 µM |  |  | inactive
5 | CCCCCCCCc1ccc(OC)c2[nH]c(C)c(OC)c(=O)c12 | > 10 µM | > 10 µM | > 10 µM | > 10 µM | > 10 µM |  |  | 
6 | CC1=CC(=O)CC(C)(C)[C@@H]1CC[C@H](C)O | > 10 µM | > 10 µM | > 10 µM | > 10 µM | > 10 µM |  |  | 
7 | COc1ccccc1[C@@]1(O)c2ccc3nc(C)c4c(c3c2[C@@H]2CC[C@H]1O2)OCO4 | > 10 µM | > 10 µM | > 10 µM | > 10 µM | > 10 µM |  |  | inactive
8 | COc1ccc(OC)c([C@@]2(O)c3ccc4[nH]c(C)c(OC)c(=O)c4c3[C@@H]3CC[C@H]2O3)c1 | > 10 µM | 8.2 µM | > 10 µM | 5.9 µM | > 10 µM |  |  | 
9 | CC1(C)C[C@H](O)C[C@@]2(C)OC(=O)C=C12 [LOLIOLIDE] | > 10 µM | > 10 µM | > 10 µM | > 10 µM | > 10 µM |  |  | 
10 | COc1ccc(OC)c([C@]2(O)c3ccc4nc(C)c5c(c4c3[C@@H]3CC[C@H]2O3)OCO5)c1 | > 10 µM | > 10 µM | > 10 µM | > 10 µM | > 10 µM |  |  | 
11 | Cc1nc2ccc3c(c2c2c1OCO2)[C@@H]1CC[C@H](O)[C@@]3(c2ccccc2)O1 | > 10 µM | > 10 µM | > 10 µM | > 10 µM | > 10 µM |  |  | inactive
12 | CC1=CC(=O)CC(C)(C)[C@@]1(O)/C=C/[C@@H](C)O [BLUMENOL A] | > 10 µM | > 10 µM | > 10 µM | > 10 µM | > 10 µM |  |  | 
13 | CC[C@@H](C)[C@@H]1NC(=O)[C@@H](NC(=O)[C@H](Cc2ccccc2)N(C)C)[C@H](C(C)C)Oc2ccc(cc2)/C=C\NC1=O | > 10 µM | > 10 µM | > 10 µM | 9.5 µM | > 10 µM |  |  | 
14 | COc1ccccc1[C@]1(O)c2ccc3nc(C)c4c(c3c2[C@@H]2CC[C@H]1O2)OCO4 | > 10 µM | > 10 µM | > 10 µM | > 10 µM | > 10 µM |  |  | 
15 | CC(C)[C@@H]1NC(=O)[C@@H](NC(=O)/C=C/c2ccccc2)[C@H](C(C)C)Oc2ccc(cc2)/C=C\NC1=O | > 10 µM | > 10 µM | > 10 µM | > 10 µM | > 10 µM |  |  | 
16 | CC(=O)O[C@H]1C(=O)[C@@]2(C)[C@H]([C@H](OC(=O)c3ccccc3)[C@]3(O)C[C@H](OC(=O)[C@H](O)[C@@H](NC(=O)c4ccccc4)c4ccccc4)C(C)=C1C3(C)C)[C@]1(OC(C)=O)CO[C@@H]1C[C@@H]2O [PACLITAXEL] |  | 0.0135 µM | 2.35 µM | 0.0065 µM | 0.0077 µM |  |  | 
